Several values for one entry are separate records, joined by “and”; a condition that tells them apart may be missing. Equal entries are not always repeated. Structures can show the parent of a compound that is named as a salt.

As a reminder, the melting point is the temperature of the solid-liquid transition.

Consider `CCC(CC)n1cc(Cl)nc(N2CCc3cc(OC)cc(C)c32)c1=O` (as salt: hydrochloride) [Example 431, 5-Chloro-1-(1-ethylpropyl)-3-(5-methoxy-7-methyl-2,3-dihydro-1H-indol-1-yl)-2(1H)-pyrazinone], for which the melting point lay in the range of 164 to 165 °C.
Next, `CCC(CC)n1cc(Cl)nc(N2CCc3cc(OC)cc(Br)c32)c1=O` (as salt: hydrochloride) [Example 441, 3-(7-Bromo-5-methoxy-2,3-dihydro-1H-indol-1-yl)-5-chloro-1-(1-ethylpropyl)-2(1H)-pyrazinone]: 130 to 132 °C; `CCC(CC)n1cc(C)nc(N2CCc3cc(OC)cc(C)c32)c1=O` (as salt: hydrochloride) [Example 481, 3-(5-Methoxy-7-methyl-2,3-dihydro-1H-indol-1-yl)-1-(1-ethylpropyl)-5-methyl-2(1H)-pyrazinone]: 138 to 140 °C; `CCC(C)n1cc(Cl)nc(N2CCc3cc(OC)cc(Cl)c32)c1=O` (centres unmarked) (as salt: hydrochloride) [Example 501, 5-Chloro-3-(7-chloro-5-methoxy-2,3-dihydro-1H-indol-1-yl)-1-(1-methylpropyl)-2(1H)-pyrazinone]: 143 to 145 °C.
Next, `CCC(C)n1cc(Cl)nc(N2CCc3cc(OC)cc(Br)c32)c1=O` (centres unmarked) (as salt: hydrochloride) [Example 502, 3-(7-Bromo-5-methoxy-2,3-dihydro-1H-indol-1-yl)-5-chloro-1-(1-methylpropyl)-2(1H)-pyrazinone]: 155 to 157 °C.
As to `CCC(C)n1cc(Cl)nc(N2CCc3cc(OC)cc(C)c32)c1=O` (centres unmarked) (as salt: hydrochloride) [Example 503, 5-Chloro-3-(5-methoxy-7-methyl-2,3-dihydro-1H-indol-1-yl)-1-(1-methylpropyl)-2(1H)-pyrazinone], the melting point lay in the range of 176 to 178 °C.
For `CCC(CC)n1cc(Br)nc(N2CCc3cc(OC)cc(Br)c32)c1=O` (as salt: hydrochloride) [Example 505, 5-Bromo-3-(7-bromo-5-methoxy-2,3-dihydro-1H-indol-1-yl)-1-(1-ethylpropyl)-2(1H)-pyrazinone], the melting point fell in the range of 133 to 135 °C.
Next, `CCC(CC)n1cc(Br)nc(N2CCc3cc(OC)cc(C)c32)c1=O` (as salt: hydrochloride) [Example 506, 5-Bromo-1-(1-ethylpropyl)-3-(5-methoxy-7-methyl-2,3-dihydro-1H-indol-1-yl)-2(1H)-pyrazinone]: 152 to 154 °C; `CC[C@H](C1CC1)n1cc(Cl)nc(N2CCc3cc(OC)cc(Cl)c32)c1=O` (as salt: hydrochloride) [Example 508, 5-Chloro-3-(7-chloro-5-methoxy-2,3-dihydro-1H-indol-1-yl)-1-[(1R)-1-cyclopropylpropyl]-2(1H)-pyrazinone]: 118 to 120 °C; `CC[C@H](C1CC1)n1cc(Cl)nc(N2CCc3cc(OC)cc(Br)c32)c1=O` (as salt: hydrochloride) [Example 509, 3-(7-Bromo-5-methoxy-2,3-dihydro-1H-indol-1-yl)-5-chloro-1-[(1R)-1-cyclopropylpropyl]-2(1H)-pyrazinone]: 138 to 140 °C.
The compound `CC[C@H](C1CC1)n1cc(Cl)nc(N2CCc3cc(OC)cc(C)c32)c1=O` (as salt: hydrochloride) [Example 510, 5-Chloro-1-[(1R)-1-cyclopropylpropyl]-3-(5-methoxy-7-methyl-2,3-dihydro-1H-indol-1-yl)-2(1H)-pyrazinone] returned a melting point of 160 to 162 °C.
Next, `CC[C@@H](C1CC1)n1cc(Cl)nc(N2CCc3cc(OC)cc(Cl)c32)c1=O` (as salt: hydrochloride) [Example 514, 5-Chloro-3-(7-chloro-5-methoxy-2,3-dihydro-1H-indol-1-yl)-1-[(1S)-1-cyclopropylpropyl]-2(1H)-pyrazinone]: 128 to 130 °C.
In turn, `CC[C@@H](C1CC1)n1cc(Cl)nc(N2CCc3cc(OC)cc(Br)c32)c1=O` (as salt: hydrochloride) [Example 515, 3-(7-Bromo-5-methoxy-2,3-dihydro-1H-indol-1-yl)-5-chloro-1-[(1S)-1-cyclopropylpropyl]-2(1H)-pyrazinone] showed a melting point of 138 to 140 °C.
Compound `CC[C@@H](C1CC1)n1cc(Cl)nc(N2CCc3cc(OC)cc(C)c32)c1=O` (as salt: hydrochloride) [Example 516, 5-Chloro-1-[(1S)-1-cyclopropylpropyl]-3-(5-methoxy-7-methyl-2,3-dihydro-1H-indol-1-yl)-2(1H)-pyrazinone] had a melting point of 156 to 158 °C.
In the case of `CC[C@H](COC)n1cc(Cl)nc(N2CCc3cc(OC)cc(Br)c32)c1=O` (as salt: hydrochloride) [Example 523, 3-(7-Bromo-5-methoxy-2,3-dihydro-1H-indol-1-yl)-5-chloro-1-[(1R)-1-(methoxymethyl)propyl]-2(1H)-pyrazinone], the melting point lay in the range of 102 to 104 °C.
`CC[C@H](COC)n1cc(Br)nc(N2CCc3cc(OC)cc(Br)c32)c1=O` (as salt: hydrochloride) [Example 525, 5-Bromo-3-(7-bromo-5-methoxy-2,3-dihydro-1H-indol-1-yl)-1-[(1R)-1-(methoxymethyl)propyl]-2(1H)-pyrazinone] returned a melting point of 122 to 123 °C.
Next, `CC[C@H](COC)n1cc(Br)nc(N2CCc3cc(OC)cc(C)c32)c1=O` (as salt: hydrochloride) [Example 526, 5-Bromo-3-(5-methoxy-7-methyl-2,3-dihydro-1H-indol-1-yl)-1-[(1R)-1-(methoxymethyl)propyl]-2(1H)-pyrazinone]: 116 to 118 °C; `CC[C@@H](COC)n1cc(Cl)nc(N2CCc3cc(OC)cc(Br)c32)c1=O` (as salt: hydrochloride) [Example 529, 3-(7-Bromo-5-methoxy-2,3-dihydro-1H-indol-1-yl)-5-chloro-1-[(1S)-1-(methoxymethyl)propyl]-2(1H)-pyrazinone]: 100 to 102 °C.
`COc1cc(C)c2c(c1)CCN2c1nc(Cl)cn(C(C(C)C)C(C)C)c1=O` (as salt: hydrochloride) [Example 532] registered a melting point of 94 to 96 °C.
For the compound `COc1cc(C)c2c(c1)CCN2c1nc(Cl)cn(CCSC)c1=O` (as salt: hydrochloride) [Example 534, 5-Chloro-3-(5-methoxy-7-methyl-2,3-dihydro-1H-indol-1-yl)-1-[2-(methylthio)ethyl]-2(1H)-pyrazinone], the melting point lay within 111 to 113 °C.
Next, `CC[C@H](COC)n1cc(Cl)nc(N2CCc3cc(OC)cc(Cl)c32)c1=O` (as salt: hydrochloride) [Example 544, 5-Chloro-3-(7-chloro-5-methoxy-2,3-dihydro-1H-indol-1-yl)-1-[(1R)-1-(methoxymethyl)propyl]-2(1H)-pyrazinone]: 126 to 128 °C.
Take `CC[C@H](COC)n1cc(Cl)nc(N2CCc3cc(OC)cc(C)c32)c1=O` (as salt: hydrochloride) [Example 545, 5-Chloro-3-(5-methoxy-7-methyl-2,3-dihydro-1H-indol-1-yl)-1-[(1R)-1-(methoxymethyl)propyl]-2(1H)-pyrazinone]: the melting point lay in the range of 62 to 64 °C.
Regarding `CC[C@@H](COC)n1cc(Br)nc(N2CCc3cc(OC)cc(C)c32)c1=O` (as salt: hydrochloride) [Example 549, 5-Bromo-3-(5-methoxy-7-methyl-2,3-dihydro-1H-indol-1-yl)-1-[(1S)-1-(methoxymethyl)propyl]-2(1H)-pyrazinone], the melting point fell in the range of 115 to 117 °C.
For the compound `CCC(CC)Nc1cc(N2CCc3cc(Cl)cc(Cl)c32)nc(C)n1` [Example 1, 4-(5,7-dichloro-2,3-dihydro-1H-indol-1-yl)-6-(1-ethylpropylamino)-2-methylpyrimidine], the melting point is 116 to 117 °C.
For the compound `CCC(CC)Nc1nc(C)nc(N2CCc3cc(Cl)cc(Cl)c32)c1Cl` [Example 2, 5-chloro-4-(5,7-dichloro-2,3-dihydro-1H-indol-1-yl)-6-(1-ethylpropylamino)-2-methylpyrimidine], the melting point lay in the range of 132 to 134 °C.
The result for `CCC(CC)Nc1nc(C)nc(N2CCc3cc(Cl)cc(Cl)c32)c1Br` [Example 3, 5-bromo-4-(5,7-dichloro-2,3-dihydro-1H-indol-1-yl)-6-(1-ethylpropylamino)-2-methylpyrimidine] reads 136 to 138 °C; that for `CCC(CC)Nc1nc(C)nc(N2CCc3cc(Cl)cc(Cl)c32)c1C=O` [Example 6, 4-(5,7-dichloro-2,3-dihydro-1H-indol-1-yl)-6-(1-ethylpropylamino)-5-formyl-2-methylpyrimidine], 182 to 184 °C; that for `CCC(CC)Nc1nc(C)nc(N2CCc3cc(Cl)cc(Cl)c32)c1CO` [Example 7, 4-(5,7-dichloro-2,3-dihydro-1H-indol-1-yl)-6-(1-ethylpropylamino)-5-hydroxymethyl-2-methylpyrimidine], 150 to 152 °C.
For the compound `CCC(CC)Nc1nc(C)nc(N2CCc3cc(OC)cc(Cl)c32)c1C#N` [Example 59, 4-(7-chloro-5-methoxy-2,3-dihydro-1H-indol-1-yl)-5-cyano-6-(1-ethylpropylamino)-2-methylpyrimidine], the melting point was 189 to 190 °C and 192 to 194 °C.
For `CCC(CC)Nc1nc(C)nc(N2CCc3cc(OC)cc(Cl)c32)c1C=O` [Example 60, 4-(7-chloro-5-methoxy-2,3-dihydro-1H-indol-1-yl)-6-(1-ethylpropylamino)-5-formyl-2-methylpyrimidine], the melting point was 178 to 179 °C.
Take `CCC(COC)Nc1nc(C)nc(N2CCc3cc(OC)cc(Cl)c32)c1I` (centres unmarked) [Example 74, 4-(7-chloro-5-methoxy-2,3-dihydro-1H-indol-1-yl)-5-iodo-6-[1-(1-methoxymethyl)propylamino]-2-methylpyrimidine]: the melting point was 150 to 152 °C.
Regarding `CCC(COC)Nc1nc(C)nc(N2CCc3cc(OC)cc(Cl)c32)c1C#N` (centres unmarked) [Example 75, 4-(7-chloro-5-methoxy-2,3-dihydro-1H-indol-1-yl)-5-cyano-6-[1-(1-methoxymethyl)propylamino]-2-methylpyrimidine], the melting point lay within 182 to 183 °C.
